Source: the supplement of paper PMC10307832

The cell lines below were run with Cc1nc(NC(=O)N2CCC[C@H]2C(N)=O)sc1-c1ccnc(C(C)(C)C(F)(F)F)c1 [Alpelisib] + CS(=O)(=O)N1CCN(Cc2cc3nc(-c4cccc5[nH]ncc45)nc(N4CCOCC4)c3s2)CC1 [Pictilisib] (partner 1 µM) (assay: relative viability (nuclei count vs DMSO), 5 days (fraction); higher = more cells survive). Conditions: first compound 0.04 µM.
In short: (§1)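 Lung cancer cell lines in 1536-well plates were dosed by pin tool the day after seeding, either with one drug alone or with a fixed anchor-drug dose plus five library-drug doses (not always all listed) in √10 steps. After 5 days, cells were fixed and their nuclei stained in one step (final 0.05% Triton X-100, 1% formaldehyde, 1 ug/ml Hoechst), then counted on 4× images. Relative viability is the nuclei count in treated wells divided by that in vehicle wells. Values are medians of duplicate plates.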

Cell Line	relative viability
NCI-H2126	0.499
EPLC-272H	0.338
NCI-H1755	0.451
NCI-H2023	0.203
NCI-H1650	0.625
NCI-H1793	0.363
H3255	0.409
NCI-H1975	0.28
PC-14	0.703
NCI-H1299	0.871
NCI-H1437	0.416
HOP-62	1.06
HCC-44	0.669
BEN	0.562
LOU-NH91	0.537
NCI-H661	0.374
NCI-H1651	0.606

Cell Line	relative viability
PC-3 [JPC-3]	0.76
SW 1573	0.498
LK-2	0.531
NCI-H2405	0.443
NCI-H1703	0.254
NCI-H1993	0.825
ChaGo-K-1	0.714
NCI-H1355	0.444
HCC-366	0.151
NCI-H1915	0.925
ABC-1	0.721
Calu-6	0.86
NCI-H1395	0.493
NCI-H727	0.302
EBC-1	0.417
A549	0.464
IA-LM	0.265

Same assay, conditions: first compound 0.1265 µM

Cell Line	relative viability
NCI-H2126	0.506
EPLC-272H	0.282
NCI-H1755	0.309
NCI-H2023	0.26
NCI-H1650	0.488
NCI-H1793	0.486
H3255	0.516
NCI-H1975	0.297
PC-14	0.858
NCI-H1299	0.76
NCI-H1437	0.482
HOP-62	0.698
HCC-44	0.654
BEN	0.523
LOU-NH91	0.504
NCI-H661	0.367
NCI-H1651	0.596

Cell Line	relative viability
PC-3 [JPC-3]	0.715
SW 1573	0.506
LK-2	0.571
NCI-H2405	0.502
NCI-H1703	0.249
NCI-H1993	0.803
NCI-H1355	0.568
HCC-366	0.137
NCI-H1915	0.987
ABC-1	0.775
Calu-6	0.945
NCI-H1395	0.673
NCI-H727	0.462
EBC-1	0.345
A549	0.504
IA-LM	0.412

Same assay, conditions: first compound 0.4 µM

Cell Line	relative viability
NCI-H2126	0.496
EPLC-272H	0.298
NCI-H1755	0.427
NCI-H2023	0.253
NCI-H1650	0.631
NCI-H1793	0.432
H3255	0.533
NCI-H1975	0.299
PC-14	0.898
NCI-H1299	0.793
NCI-H1437	0.441
HOP-62	0.988
HCC-44	0.822
BEN	0.705
LOU-NH91	0.559
NCI-H661	0.475
NCI-H1651	0.638

Cell Line	relative viability
PC-3 [JPC-3]	0.737
SW 1573	0.557
LK-2	0.643
NCI-H2405	0.527
NCI-H1703	0.227
NCI-H1993	0.767
ChaGo-K-1	0.883
NCI-H1355	0.436
HCC-366	0.196
NCI-H1915	1.02
ABC-1	1.05
Calu-6	1.09
NCI-H1395	0.663
NCI-H727	0.404
EBC-1	0.412
A549	0.529
IA-LM	0.432

Same assay, conditions: first compound 1.265 µM

Cell Line	relative viability
NCI-H2126	0.491
EPLC-272H	0.336
NCI-H1755	0.456
NCI-H2023	0.207
NCI-H1650	0.595
NCI-H1793	0.328
H3255	0.356
NCI-H1975	0.273
PC-14	0.6
NCI-H1299	0.796
NCI-H1437	0.37
HOP-62	0.586
HCC-44	0.491
BEN	0.579
LOU-NH91	0.52
NCI-H661	0.506
NCI-H1651	0.547

Cell Line	relative viability
PC-3 [JPC-3]	0.767
SW 1573	0.459
LK-2	0.524
NCI-H2405	0.488
NCI-H1703	0.235
NCI-H1993	0.696
ChaGo-K-1	0.625
NCI-H1355	0.521
HCC-366	0.11
NCI-H1915	0.908
ABC-1	0.627
Calu-6	0.819
NCI-H1395	0.615
NCI-H727	0.325
EBC-1	0.298
A549	0.414
IA-LM	0.335

Same assay, conditions: first compound 4 µM

Cell Line	relative viability
NCI-H2126	0.501
EPLC-272H	0.262
NCI-H1755	0.363
NCI-H2023	0.19
NCI-H1650	0.494
NCI-H1793	0.314
H3255	0.411
NCI-H1975	0.248
PC-14	0.611
NCI-H1299	0.599
NCI-H1437	0.335
HOP-62	0.727
HCC-44	0.441
BEN	0.578
LOU-NH91	0.457
NCI-H661	0.346
NCI-H1651	0.644

Cell Line	relative viability
PC-3 [JPC-3]	0.676
SW 1573	0.352
LK-2	0.578
NCI-H2405	0.39
NCI-H1703	0.26
NCI-H1993	0.918
ChaGo-K-1	0.492
NCI-H1355	0.425
HCC-366	0.222
NCI-H1915	0.766
ABC-1	0.477
Calu-6	0.841
NCI-H1395	0.492
NCI-H727	0.373
EBC-1	0.349
A549	0.338
IA-LM	0.327

Each cell line was assayed with Cc1nc(NC(=O)N2CCC[C@H]2C(N)=O)sc1-c1ccnc(C(C)(C)C(F)(F)F)c1 [Alpelisib] + Nc1nc2[nH]cc(CCc3ccc(C(=O)N[C@@H](CCC(=O)O)C(=O)O)cc3)c2c(=O)[nH]1 [Pemetrexed] (partner 0.2 µM) in the same assay as above. Conditions: first compound 0.04 µM.
In short: as §1

Cell Line	relative viability
NCI-H2126	0.686
EPLC-272H	0.394
NCI-H1755	0.409
NCI-H2023	0.214
NCI-H1650	0.434
NCI-H1793	0.879
NCI-H2342	0.843
H3255	0.586
NCI-H1975	0.298
PC-14	0.157
NCI-H1437	0.3
HOP-62	0.342
HCC-44	0.65
BEN	0.723
LOU-NH91	0.398
NCI-H661	0.941
NCI-H1651	0.543
PC-3 [JPC-3]	1.23
SW 1573	0.837
LK-2	0.247
NCI-H2405	1.08
NCI-H1648	0.661
NCI-H1993	0.606
ChaGo-K-1	0.265
NCI-H1355	1.03
HCC-366	0.175
NCI-H1915	0.498
NCI-H522	1.07
NCI-H1395	0.96
SW 900	0.513

Same assay, conditions: first compound 0.1265 µM

Cell Line	relative viability
NCI-H2126	0.752
EPLC-272H	0.363
NCI-H1755	0.432
NCI-H2023	0.221
NCI-H1650	0.354
NCI-H1793	0.855
NCI-H2342	0.77
H3255	0.614
NCI-H1975	0.293
PC-14	0.145
NCI-H1437	0.31
HOP-62	0.28
HCC-44	0.706
BEN	0.598
LOU-NH91	0.385
NCI-H661	1.01
NCI-H1651	0.525
PC-3 [JPC-3]	0.559
SW 1573	0.871
LK-2	0.252
NCI-H2405	0.975
NCI-H1648	0.743
NCI-H1993	0.544
ChaGo-K-1	0.257
NCI-H1355	1.03
HCC-366	0.232
NCI-H1915	0.527
NCI-H522	1.03
NCI-H1395	0.747

Same assay, conditions: first compound 0.4 µM

Cell Line	relative viability
NCI-H2126	0.674
EPLC-272H	0.355
NCI-H1755	0.437
NCI-H2023	0.219
NCI-H1650	0.337
NCI-H1793	0.977
NCI-H2342	0.694
H3255	0.603
NCI-H1975	0.294
PC-14	0.134
NCI-H1437	0.274
HOP-62	0.364
HCC-44	0.698
BEN	0.844
LOU-NH91	0.486
NCI-H661	0.961
NCI-H1651	0.594
PC-3 [JPC-3]	1.12
SW 1573	0.812
LK-2	0.213
NCI-H2405	1.02
NCI-H1648	0.894
NCI-H1993	0.571
ChaGo-K-1	0.263
NCI-H1355	1.01
HCC-366	0.296
NCI-H1915	0.525
NCI-H522	1.1
NCI-H1395	0.92
SW 900	0.476

Same assay, conditions: first compound 1.265 µM

Cell Line	relative viability
NCI-H2126	0.584
EPLC-272H	0.276
NCI-H1755	0.371
NCI-H2023	0.181
NCI-H1650	0.335
NCI-H1793	0.614
NCI-H2342	0.686
H3255	0.526
NCI-H1975	0.285
PC-14	0.137
NCI-H1437	0.252
HOP-62	0.26
HCC-44	0.65
BEN	0.794
LOU-NH91	0.407
NCI-H661	0.915
NCI-H1651	0.541
PC-3 [JPC-3]	0.969
SW 1573	0.741
LK-2	0.209
NCI-H2405	0.814
NCI-H1648	0.559
NCI-H1993	0.545
ChaGo-K-1	0.263
NCI-H1355	0.934
HCC-366	0.342
NCI-H1915	0.49
NCI-H522	0.946
NCI-H1395	0.718
SW 900	0.497

Same assay, conditions: first compound 4 µM

Cell Line	relative viability
NCI-H2126	0.509
EPLC-272H	0.238
NCI-H1755	0.402
NCI-H2023	0.185
NCI-H1650	0.353
NCI-H1793	0.596
NCI-H2342	0.447
H3255	0.507
NCI-H1975	0.279
PC-14	0.138
NCI-H1437	0.213
HOP-62	0.297
HCC-44	0.619
BEN	0.85
LOU-NH91	0.404
NCI-H661	0.796
NCI-H1651	0.538
PC-3 [JPC-3]	0.801
SW 1573	0.711
LK-2	0.199
NCI-H2405	0.571
NCI-H1648	0.482
NCI-H1993	0.432
ChaGo-K-1	0.251
NCI-H1355	0.926
HCC-366	0.254
NCI-H1915	0.428
NCI-H522	0.72
